Test results from PMC9271048, “Probing strigolactone perception mechanisms with rationally designed small-molecule agonists stimulating germination of root parasitic weeds” (Nature Communications, 2022).
Read-outs that look alike come from different tables or passages of the source.

Assays:
[1] = biological target: T1, ShHTL7 (Striga hermonthica, UniProt A0A0M3PNA2); test: biochemical; format: binding
Experimental: We used a sensitive, high-throughput Surface plasmon resonance (SPR) method to examine the binding affinities of the 51 candidates to the recombinant ShHTL7 protein, which was immobilized on the CM5 sensor chip. rac-GR24 was used as a positive control.
The interactions of small molecules with recombinant ShHTL7 were evaluated using the Biacore T200 system (GE Healthcare, USA) at 25 °C[47]. The purified ShHTL7 protein was immobilized on a CM5 sensor chip using the standard amine coupling procedure. […] PBS-P (10 mM phosphate buffer, 2.7 mM KCl, 137 mM NaCl, 0.05% Surfactant P20) containing 0.5% DMSO was used as the running buffer. For the screening experiments, candidates with different structures at 50 μM in the running buffer were injected individually at a flow rate of 30 μL min^−1. For binding affinity studies, compounds with different concentrations in running buffer were used. During the experiments, both the contact and dissociation times were set as 1 min. Data analysis was performed using the Biacore Evaluation Software (T200 Version 2.0). The affinity values (KD) were obtained by the kinetics analysis or the steady-state affinity method.

[2] = biological target: T1, ShHTL7; test: ShHTL7-hydrolysis reaction analysis (HPLC); format: biochemical; conditions: authors' response to reviewer
Experimental: Compounds 4a, (R)- and (S)-4a, 4g-i, and rac-GR24 were dissolved in DMSO and prepared as stock solution ([…]) just before use. A 200 μL of the reaction solution consisting of PBS buffer (pH 7.3), 10 μM samples, and 10 μg recombinant ShHTL7 or its mutants was incubated at 30 °C for 30 min; with the reaction solution (200 μL) containing PBS buffer (pH 7.3) and 10 μM samples as the blank control[40],[52]. Subsequently, the reaction was terminated by adding 200 μL of methanol, and then the reaction mixture was shaken for 10 s and centrifuged at 5310 × g for 60 s. The supernatant was filtered and the remaining amount of samples was analyzed by HPLC. The relative percentages of hydrolysis were obtained by using the amount of compounds in blank control as reference.
Supplementary Fig. 11. Hydrolysis of 4a, (R)-4a, (S)-4a, 4g-i, and rac-GR24 by ShHTL7 at 30 °C for 30 min. The remaining amounts of compounds in recombinant ShHTL7 protein and buffer solution were determined by HPLC analysis. The relative percentages of hydrolysis were calculated by using the amount of compounds in the buffer as reference. The error bar indicates SD (n = 3 biologically independent experiments).
(§1) (1 picture or pasted object on this page, not shown here)

[3] = biological target: T1, ShHTL7; test: Lineweaver-Burk plot analysis of ShHTL7 inhibition (YLG); format: biochemical; conditions: ShHTL7-mediated hydrolysis of YLG; no significant change of Vmax
Experimental: 0.1 Å width; second, the number of data points of each bin was counted; third, the density of each bin is calculated using the number of D5′C-OG-DNE2-HG data points fall in the corresponding bin being divided by the total number of the distance-distance data points; last, the Z(A,D) (shown in Equation 1) was constructed by fitting the data with the two-dimensional Gaussian function using the non-linear surface fitting methods in Origin Lab.
In this equation, Z is the conformation probability density of D5′C-OG and DNE2-HG in the calculation system. µ is the mean of the normal distribution. σ is the standard deviation.
The PPC of each system was calculated using the bivariate integration of the corresponding CPDF over the interval 1.5–3.8 Å for D5′C-OG, and 1.6–3.5 Å for DNE2-HG with Equation 2 using Matlab software (The Math Works, Natick, MA).
The final PPC value of each system was the averaged data of every 200 ns in the MD simulation.
The structure figures were analyzed by PYMOL software8.
The structures of (S)-4a were constructed and optimized by Sybyl 6.9 (Tripos Inc., St. Louis, MO).
DFT calculations of (S)-4a were performed by Gaussian 09 program package at b3lyp/6-31g(d) level9.
The results were analyzed by GaussView 5.0.
Determination of the Inhibition Model
For Lineweaver-Burk plot analysis, the competitive inhibition of ShHTL7 by compounds 1, 2g, and 2h was performed by using YLG as the substrate at 25 °C. The excitation and emission […]
Supplementary Fig. 7. Lineweaver−Burk plots for the inhibition of ShHTL7 by compounds 1 (a), 2g (b), and 2h (c). Error bar indicates SD (n = 3 biologically independent experiments).
as §1
[1] Yao, R. et al. DWARF14 is a non-canonical hormone receptor for strigolactone. Nature 536, 469– […]
[2] de Saint Germain, A. et al. An histidine covalent receptor and butenolide complex mediates strigolactone perception.
[3] […]
A: We have evaluated inhibitory kinetics of the three representative compounds 1, 2g, and 2h on ShHTL7-mediated hydrolysis of YLG. […]

[4] = biological target: T1, ShHTL7; test: Competitive inhibition of ShHTL7 with Yoshimulactone Green (YLG) as substrate; format: biochemical; conditions: YLG used as the substrate, means ± SD, n = 3
Experimental: Based on the structural feature of the lead compound 2h, we selected three regions to perform further modification (Supplementary Fig. 6), to try to further improve bioactivity. Insertion of a carbonyl group between the bicyclo[2.2.1]hept-5-en-2-yl group and the piperazine ring was detrimental to binding affinity (Supplementary Fig. 6, region A). Removal of an oxygen atom in region B was found unfavorable to binding affinity as well. Therefore, we focused on modifying the benzene ring (region C) for 2h. A series of compounds with different groups at region C was synthesized (Supplementary Scheme 1). […] As SPR just measures the binding ability, another independent assay by using Yoshimulactone Green (YLG) as the fluorescent substrate was performed to determine the half-maximal inhibitory concentration (IC50) of these compounds against ShHTL7[22].
The excitation and emission wavelengths of YLG are 480 and 520 nm, respectively. We used a fluorescence spectrophotometer (CARY Eclipse) to detect the fluorescence intensity change of YLG during the enzymatic hydrolysis assay process. All the testing compounds and YLG were dissolved in DMSO and prepared as stock solutions just before use. […] The changes of fluorescence at 520 nm of each well were recorded every 1 min for 30 min. Using the reaction mixture without adding enzyme and tested compounds as the background control. After subtracting the background hydrolysis, a linear fluorescence increase in 8 min was used for further inspection. The IC50 values were determined via fitting relative inhibition percentages with the varying concentrations of compounds in Microsoft Excel.

[5] = system: P. aegyptiaca seeds; test: P. aegyptiaca seed germination assay; format: in vivo, Phelipanche aegyptiaca; conditions: for germination of P. aegyptiaca seeds, source data average: 10 μM, Fig. 1d source data, average of 3; for P. aegyptiaca germination(%): Supplementary Table 1, compounds tested at 10 μM, means ± SD, n = 3
Experimental: P. aegyptiaca seeds were harvested from Xinjiang province, China in 2017. The seeds were surface sterilized using 1% NaClO solution for 2 min and then washed with distilled water six times. For seed germination assay, about 20 pieces of glass fiber-filter paper discs (15 mm diameter, Whatman GF/B) were placed separately on two layers of filter papers (9 cm diameter, Whatman) in a Petri dish. Five milliliters of distilled water was added to each Petri dish to wet the papers. Approximately 40–90 sterilized seeds were spread onto each glass fiber-filter paper disc. After the seeds were conditioned in the dark at 25 °C for 4 days[48], glass fiber-filter paper discs were blotted dry on filter papers (9 cm) and transferred to the wells of 24-well cell culture plates. The testing compounds were dissolved in acetone and diluted with H2O (VH2O/Vacetone = 999/1) just before use[49]. rac-GR24 and 1‰ acetone solution were used as positive and negative controls, respectively. One hundred microliters of the test solution was added to each well of the plates, and all treatments were performed in three biological repeats. The plates were sealed and incubated in the dark at 25 °C for a week. The experiments were performed at least three times. The germinated seeds were observed by using an electronic magnifier at ×20 magnification.

T1 sequence (A0A0M3PNA2 entry or part of it): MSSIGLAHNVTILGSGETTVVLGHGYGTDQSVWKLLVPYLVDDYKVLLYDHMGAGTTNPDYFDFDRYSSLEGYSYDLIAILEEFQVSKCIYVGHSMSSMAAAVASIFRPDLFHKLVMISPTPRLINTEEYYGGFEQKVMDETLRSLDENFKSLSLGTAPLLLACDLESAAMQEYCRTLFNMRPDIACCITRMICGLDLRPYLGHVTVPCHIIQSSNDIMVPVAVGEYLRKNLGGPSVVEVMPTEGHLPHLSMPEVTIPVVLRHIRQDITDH

Compound	Kd [1]	hydrolysis by ShHTL7 [2]	inhibition manner (Lineweaver-Burk plot) [3]	IC50 ([4]; IC50 (Supplementary Table 1))	germination of P. aegyptiaca seeds, source data average [5]	P. aegyptiaca germination(%) [5]	IC50 ([4]; read-out: IC50 (Supplementary Table 1))
O=C(COc1ccc(Cl)cc1)N1CCN(CC2CC=CCC2)CC1 (stereo not shown) [2g]	1.02 ± 0.11 µM	could not be hydrolyzed by ShHTL7	in a competitive manner	–	–	–	–
Cc1ccc(OCC(=O)N2CCN(CC3CC4C=CC3C4)CC2)cc1 (stereo not shown) [2h]	0.96 µM	–	in a competitive manner	22 ± 4.97 µM	25.888%	27.4%	–
O=C(c1ccc(F)cc1)N1CCN(CC2CC=CCC2)CC1 (stereo not shown) [compound 1, (4-(cyclohex-3-en-1-ylmethyl)piperazin-1-yl)(4-fluorophenyl)methanone]	13.3 ± 1.4 µM	–	in a competitive manner	–	40.0744%	39.4%	15.9 ± 1.47 µM
